Results reported in ChEMBL document CHEMBL3507680, “University of Dundee, Gates Library screen for HepG2 cell viability”.

Experiment: Human HepG2 cell viability assay in 384 well format
Type: toxicity, cell-based
Design: dose 125 nL, time 70.5 hour; cytotoxicity at 70.5 h: concentration not given beside the values
Conditions: HepG2 cells, read-out: Inhibition

Row | SMILES | cytotoxicity at 70.5 h
1 | O=C(CCS(=O)(=O)C1CCCC1)NCCc1cccc(O)c1 | 19.9%
2 | CC1CN(C)CCN1C(=O)c1cnc2onc(CC(C)(C)C)c2c1 (centres undefined) | -8.98%
3 | CC(C)(C)C(O)CN1CCN(Cc2nccn2CC(F)(F)F)CC1 (centres undefined) | 17.5%
4 | CCc1nnc2n1CCN(C(=O)c1cnc(-c3cccs3)s1)C2 | -7.22%
5 | CC(O)C1CCN(Cc2nccn2CC(F)(F)F)CC1 (centres undefined) | -7.97%
6 | CN(C)C(CNC(=O)c1ncoc1-c1ccccc1)c1ccsc1 (centres undefined) | -11.1%
7 | COC(=O)C(C)(C)C(C)(C)NC(=O)Nc1nnc(-c2ccccn2)s1 | -10.6%
8 | Cc1cccc(C2CCCN2C(=O)CCS(C)(=O)=O)c1C (centres undefined) | 18.6%
9 | CCCS(=O)(=O)NC(=O)c1sc(C2CCCC2)nc1C | -3.78%
10 | Nc1c(Cl)cnn1C1CCN(Cc2ccccc2)C1 (centres undefined) | -3.84%
11 | CNS(=O)(=O)CC(=O)N(Cc1c(F)cccc1Cl)C1CC1 | -7.68%
12 | COCc1noc(-c2nn(-c3ccccc3F)c3c2CCC3)n1 | -6.39%
13 | CS(=O)(=O)CCCSCc1ccc(Br)c(F)c1 | -1.93%
14 | CNC(=O)c1sc(C2CCCC2)nc1C | -5.12%
15 | O=C(NCc1ccco1)Nc1ccc2nc(N3CCOCC3)oc2c1 | -2.89%
16 | CC(C)(C)Cc1noc2ncc(C(=O)N3CCC3)cc12 | -6.81%
17 | Cc1cc(NC(=O)N(Cc2ccc(C#N)cc2)C(C)C)no1 | -13.2%
18 | CCSc1ccc(C(C)NC(=O)CNS(C)(=O)=O)cc1 (centres undefined) | -7.13%
19 | O=C1CCCN1CC1CCCCN1C(=O)Nc1cccc(F)c1 (centres undefined) | -14.6%
20 | CC(=O)c1cccc(NC(=O)N2CCCCC2CN2CCCC2=O)c1 (centres undefined) | -7.82%
21 | [O-][S+](CCN1CCc2[nH]nc(C(F)(F)F)c2C1)c1ccccc1 (centres undefined) | -6.21%
22 | CN(C)c1cc2c(nn1)CCN(C(=O)c1cc3ccccc3o1)C2 | -11.3%
23 | CCNc1cc2c(nn1)CCN(C(=O)c1cc3ccccc3[nH]c1=O)C2 | -12.3%

Row | SMILES | cytotoxicity at 70.5 h
24 | CCC(=O)Nc1cc(Br)cnc1OCC(F)(F)F | -8.98%
25 | CCOc1cc(F)ccc1NC(=O)NCC(c1cnn(C)c1)N(C)C (centres undefined) | -0.683%
26 | CCOCc1ccccc1NC(=O)NCC(c1cnn(C)c1)N(C)C (centres undefined) | -5.82%
27 | Cn1c(C(=O)NS(C)(=O)=O)ccc1-c1ccccc1 | -6.29%
28 | Cc1ccc(C(NC(=O)Cc2nc3ncccn3n2)C2CC2)cc1 (centres undefined) | -11.9%
29 | CNC(=O)c1ccc(-c2ccccc2)n1C | -9.17%
30 | Cc1nc(NC(=O)OC(C)(C)C)sc1C(N)=O | -2.34%
31 | CCN(CC)C(C(=O)Nc1ccc2c(c1)CCC(=O)N2)c1ccccc1 (centres undefined) | -11.2%
32 | c1ccc(CSc2nnc(C3CC3)s2)nc1 | -7.57%
33 | CCCN(CCC)S(=O)(=O)N(C)Cc1ccncc1 | -12.4%
34 | COCCN(CCOC)S(=O)(=O)N(C)Cc1ccncc1 | 19.1%
35 | CC/C=C(/C)C(=O)NCc1ccnc(OC)c1 | -8.93%
36 | CC(C)N(C)CCNC(=O)N(C)CC1CCOCC1 | -11.2%
37 | Cc1cc2n(n1)CC(CNCc1cnn(C)c1)CN2 (centres undefined) | -15%
38 | COc1c(CNCCC(=O)Nc2cccc(C)n2)c(C(C)C)nn1C | 14.3%
39 | CN1CCN(C(=O)CCCc2ccccn2)c2ccc(F)cc21 | 14.3%
40 | Cc1ccc(N(C)CC(O)COCc2ccccc2)c(C)c1 (centres undefined) | 12.5%
41 | COc1c(NC(=O)N(C)CCOc2ccccc2)c(C)nn1C | 15.1%
42 | COCCOCC(=O)NCCCOC1CCCc2ccccc21 (centres undefined) | 27.2%
43 | Cc1noc(CNc2ccc(OC(F)F)cc2OC(F)F)n1 | -2.77%
44 | CC(=O)NCCNC(=O)Nc1ccc(C)cc1OCc1ccccc1 | -1.2%
45 | Cc1cc(C)cc(C(=O)NCCCC2(C3OCCO3)CCOCC2)c1 | 1.06%
46 | O=C(CCc1nccs1)N1CCC(C(=O)O)(c2ccccc2)CC1 | -0.696%

Row | SMILES | cytotoxicity at 70.5 h
47 | CCN(CC)S(=O)(=O)CCNc1ncnc2cc(F)c(F)cc12 | -1.89%
48 | Cc1nc(CNC(=O)Nc2ccc3c(c2)CCCC(=O)N3)sc1C | -0.115%
49 | N#Cc1ccc(NCCCN2C(=O)COc3ccccc32)nc1 | -1.32%
50 | Cc1nc(CNC(=O)Nc2ccc3c(c2)CCCN3C)sc1C | -0.336%
51 | COc1cccc(C2(NC(=O)CCNC(C)=O)CC2)c1 | 5.65%
52 | COc1c(NC(=O)N(C)CCOc2ccc(F)cc2)c(C)nn1C | 2.48%
53 | Cc1noc(C)c1Cn1cc(I)cc(C)c1=O | 4.77%
54 | CN1C(=O)CCN(C(=O)C2CC=CC2)c2ccccc21 | 1.54%
55 | COc1cccc(-c2n[nH]cc2CNCC2CCS(=O)(=O)C2)c1 (centres undefined) | 0.998%
56 | O=C(CCCc1ccccn1)N1CCOc2ccc(F)cc21 | 1.36%
57 | FC(F)(F)c1nnc2n1CCN(c1nc(C3CC3)ns1)C2 | -1.08%
58 | COCCC(=O)NCCCOC1CCCc2ccccc21 (centres undefined) | 1.55%
59 | Cn1cc(C2CCCN2C(=O)CCn2ccc3ccccc32)cn1 (centres undefined) | 3.44%
60 | COc1cccc(COCC(O)CN(C)c2ccc(C)cc2C)c1 (centres undefined) | -0.324%
61 | Cn1cc(C2CCCN2C(=O)Cn2ccc3ccccc32)cn1 (centres undefined) | -0.47%
62 | Cc1ccc(N(C)CC(O)COCc2ccccc2F)c(C)c1 (centres undefined) | -0.728%
63 | COc1c(CNCCC(=O)Nc2cccc(C)n2)c(C)nn1C | -1.12%
64 | CC(C)N(Cc1cccnc1)C(=O)CCSc1ccc(C#N)cc1 | 5.31%
65 | CCCc1cc(NC(=O)c2cc(N3CCNC3=O)c(F)cc2F)n[nH]1 | 1.56%
66 | Cc1cc(CS(=O)(=O)CC(=O)N2c3ccccc3CC2C)no1 (centres undefined) | -0.335%
67 | Cc1noc(C)c1CS(=O)(=O)CC(=O)N1c2ccccc2CC1C (centres undefined) | -12%
68 | CN(C)C(CNCc1nc(-c2ccsc2)no1)c1cccs1 (centres undefined) | -8.94%
69 | Cc1cc(C)c(CNc2ncnc3c2cnn3C)c(=O)[nH]1 | -11.1%

Row | SMILES | cytotoxicity at 70.5 h
70 | CC(C)N(Cc1cccnc1)C(=O)CNc1ccc(C#N)cc1 | -12.5%
71 | N#Cc1ccc(OC2CCN(CC(=O)NCC3CCCO3)CC2)cc1 (centres undefined) | -5%
72 | O=C(CCCNC(=O)Nc1ccc(F)cc1)Nc1cn[nH]c1 | -7.73%
73 | CCCc1cc(NC(=O)c2ccc(Cl)c(N3CCNC3=O)c2)n[nH]1 | 11.9%
74 | CS(=O)(=O)c1nccn1Cc1ccc(F)cc1Cl | -6.78%
75 | CC(Nc1ccc(Oc2cccc(C#N)c2)cc1)C(=O)NC1CC1 (centres undefined) | -3.83%
76 | CNS(=O)(=O)c1cc(C(=O)N(C)Cc2sccc2C)c(C)o1 | -5.52%
77 | CC1CN(Cc2ccccc2)CCCN1CCCS(C)(=O)=O (centres undefined) | -4.81%
78 | COc1ccc(S(=O)(=O)Cc2noc(CC(C)C)n2)cc1 | 5.74%
79 | Cc1ccc(N2CCc3ncnc(C)c3CC2)nn1 | 18.8%
80 | O=C(NC[C@@H]1C[C@@H]2CN(C(=O)CO)C[C@H]2O1)c1ccsc1 | 21%
81 | O=C(NCC1CC2(CO1)CN(c1ncccn1)C2)C1CCC1 (centres undefined) | 2.73%
82 | COc1cc(N2CC[C@@H]3[C@@H](CC2)OCCN3CC2CC2)ncn1 | -4.1%
83 | Cn1cc(CN2C[C@H]3CCC[C@@]3(COc3cccnc3)C2)cn1 | -2.32%
84 | CCN(CC)c1ncnc2c1CCN(c1ccc(C)nn1)CC2 | -1.7%
85 | Cn1cccc1C(=O)NC[C@H]1C[C@@H]2CN(C(=O)c3ccco3)C[C@@H]2O1 | -1.72%
86 | CCN(C)c1ncnc2c1CCN(c1ccc(C)nn1)CC2 | -2.59%
87 | O=C(c1ccco1)N1CCCC2(C1)CN(c1nncs1)CCO2 (centres undefined) | -5.17%
88 | Cc1cc(CN2CC[C@H]3C[C@@H](c4nc(C5CC5)cs4)O[C@@H]3C2)no1 | -2.95%
89 | CC1N(c2cnn(C)c2)C(=O)COC12CCN(Cc1ccoc1)CC2 (centres undefined) | 2.62%
90 | COCCN1CC2(CCOCC2)c2cc(NC(=O)C3CC=CC3)ccc21 | 28.4%
91 | CCN1C(=O)CC[C@]12CC[C@@H](NC(=O)NCc1cccnc1)CC2 | -4.88%
92 | CN1C(=O)CC[C@]12CC[C@@H](NC(=O)NCc1cccnc1)CC2 | -4%

Row | SMILES | cytotoxicity at 70.5 h
93 | O=C(NCc1cccnc1)N[C@H]1CC[C@@]2(CCC(=O)N2CC2CC2)CC1 | 8.65%
94 | O=C(NCCc1cccnc1)c1nc2c(s1)CCCN2C(=O)C1CC1 | -7.13%
95 | COCC1c2c(cnn2C)CCN1C(=O)c1cscn1 (centres undefined) | -1.37%
96 | Cc1nc(CNCC2Cn3nncc3CO2)cs1 (centres undefined) | -2.11%
97 | Cc1noc(C)c1CNCC1Cn2nncc2CO1 (centres undefined) | -2.84%
98 | O=C1CC[C@H]2[C@H](CCN2S(=O)(=O)C2CC2)N1CCN1CCCC1 | 25.5%
99 | Cn1cccc1C(=O)N[C@H]1CN(Cc2ccoc2)[C@@H]2CCCO[C@H]12 | 17.5%
100 | c1cnc(N2CCO[C@H]3CN(CC4CCOC4)C[C@H]32)cn1 (some centres undefined) | -2.13%
101 | CCC(=O)N1CCC2(CC1)C(c1cccnc1)CC(=O)N2CCOC (centres undefined) | 1.53%
102 | COc1ccccc1CN1C[C@@H]2CN(C(C)=O)CCO[C@@H]2C1 | -1.68%
103 | CC(=O)N1CCO[C@@H]2CN(Cc3ccccc3F)C[C@@H]2C1 | -5.88%
104 | O=C(c1ccccc1F)N1CCC2(CC1)CC(Oc1ccccn1)CO2 (centres undefined) | -4.93%
105 | O=C(c1ccco1)N1CCCC2(CCN(c3nncs3)C2)C1 (centres undefined) | -5.1%
106 | COCCN1CCCCC12CC(=O)N(c1ccccc1OC)C2 (centres undefined) | -2.67%
107 | CC1N(c2cnn(C)c2)C(=O)COC12CCN(Cc1ccco1)CC2 (centres undefined) | -3.36%
108 | CC1N(c2cnn(C)c2)C(=O)COC12CCN(c1ncccn1)CC2 (centres undefined) | -1.11%
109 | Cc1cccc(CN2CCN3C[C@H](Oc4cncnc4)C[C@H]3C2)n1 | -0.54%
110 | c1ccc(CN2CCN3C[C@H](Oc4cncnc4)C[C@H]3C2)nc1 | -3.2%
111 | c1cncc(CN2Cc3nccn3CC(Cn3cccn3)C2)c1 (centres undefined) | -6.13%
112 | c1cncc(N2CCCn3nnc(CN4CCCCC4)c3C2)c1 | -0.156%
113 | COCC1CC2(CCN(Cc3nccs3)CC2)CN1Cc1ccccn1 (centres undefined) | 9.76%
114 | CN(C)CCN1CCCC12CCN(Cc1nccn1C)CC2 | -0.128%
